Measured values taken from ChEMBL document CHEMBL1142439 (Bioorg Med Chem, 2008).
The source made the active and inactive calls. The calls are words filed in the database; no cut-off is given here.

Legend:
D(1A) dopamine receptor = D(1A) dopamine receptor (Homo sapiens, UniProt P21728); experiment: Agonist activity at human recombinant dopamine D1 receptor expressed in CHO cells assessed as stimulation of cAMP production; format: functional, cell-based
Rattus norvegicus [1] = experiment: Induction of locomotor activity in Wistar rat at 10 nmol/kg, sc; format: functional, organism-based
Rattus norvegicus [2] = experiment: Induction of rearing grooming in Wistar rat at 10 nmol/kg, sc; format: functional, organism-based
Rattus norvegicus [3] = experiment: Induction of yawning in Wistar rat at 10 nmol/kg, sc; format: functional, organism-based
Rattus norvegicus [4] = experiment: Decrease in dopamine release in Wistar rat striatal at 1 nmol/kg, sc after 90 mins; format: functional; design: scale not given: the % may be the effect or the level left
Rattus norvegicus [5] = experiment: Induction of penile grooming in Wistar rat at 10 nmol/kg, sc; format: functional, organism-based
Rattus norvegicus [6] = experiment: Decrease in dopamine release in Wistar rat striatal at 100 nmol/kg, po after 45 mins; format: functional; design: scale not given: the % may be the effect or the level left
D(2) dopamine receptor = D(2) dopamine receptor (Homo sapiens, UniProt P14416); experiment: Agonist activity at human dopamine D2 receptor expressed in CHO cells assessed as inhibition of forskolin-stimulated cAMP production; format: functional, cell-based
D(2) dopamine receptor, sequence (P14416 whole entry): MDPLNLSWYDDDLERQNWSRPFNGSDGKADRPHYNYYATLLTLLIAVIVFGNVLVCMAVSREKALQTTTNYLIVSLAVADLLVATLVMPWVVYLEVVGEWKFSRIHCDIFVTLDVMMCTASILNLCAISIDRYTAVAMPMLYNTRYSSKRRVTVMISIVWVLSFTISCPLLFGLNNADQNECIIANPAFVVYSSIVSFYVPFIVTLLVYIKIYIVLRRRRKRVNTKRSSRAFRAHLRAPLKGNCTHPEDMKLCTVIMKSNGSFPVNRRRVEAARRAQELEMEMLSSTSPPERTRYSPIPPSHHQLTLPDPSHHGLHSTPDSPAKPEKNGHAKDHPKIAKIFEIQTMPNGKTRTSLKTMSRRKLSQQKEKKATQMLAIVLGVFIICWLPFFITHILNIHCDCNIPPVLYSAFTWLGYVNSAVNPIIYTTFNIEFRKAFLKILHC

Rattus norvegicus [7] = experiment: Decrease in dopamine release in Wistar rat striatal at 10 nmol/kg, sc after 90 mins; format: functional; design: scale not given: the % may be the effect or the level left
Rattus norvegicus [8] = experiment: Decrease in dopamine release in Wistar rat striatal at 1 nmol/kg, sc after 6 hrs; format: functional; design: scale not given: the % may be the effect or the level left
Rattus norvegicus [9] = experiment: Induction of sniffing in Wistar rat at 10 nmol/kg, sc; format: functional, organism-based

D(1A) dopamine receptor, sequence (P21728 whole entry): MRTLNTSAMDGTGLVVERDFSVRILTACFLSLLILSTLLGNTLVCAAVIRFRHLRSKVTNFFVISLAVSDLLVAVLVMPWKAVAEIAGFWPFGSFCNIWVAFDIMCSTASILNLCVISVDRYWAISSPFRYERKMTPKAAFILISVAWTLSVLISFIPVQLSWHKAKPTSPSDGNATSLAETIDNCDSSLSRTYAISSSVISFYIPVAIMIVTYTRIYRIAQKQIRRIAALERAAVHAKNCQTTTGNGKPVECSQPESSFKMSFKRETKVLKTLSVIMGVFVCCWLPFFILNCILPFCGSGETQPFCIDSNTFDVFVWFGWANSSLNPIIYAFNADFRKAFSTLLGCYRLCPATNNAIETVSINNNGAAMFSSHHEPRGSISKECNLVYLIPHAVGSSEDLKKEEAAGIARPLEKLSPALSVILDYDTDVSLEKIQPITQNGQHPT

Compound: CCCN1CCC[C@@H]2Cc3c(ccc(O)c3O)C[C@H]21
- EC50 (D(1A) dopamine receptor): 25 nM
- Activity (Rattus norvegicus [1]): Active
- Activity (Rattus norvegicus [2]): Active
- Activity (Rattus norvegicus [3]): Active
- Activity (Rattus norvegicus [4]): 20%
- Activity (Rattus norvegicus [5]): Active
- Activity (Rattus norvegicus [6]): 40%
- EC50 (D(2) dopamine receptor): 0.65 nM
- Activity (Rattus norvegicus [7]): 30%
- Activity (Rattus norvegicus [8]): 30%
- Activity (Rattus norvegicus [9]): Active
